What is called EC50 is the concentration that produces a half-maximal response. Lower therefore signals an effect from little substance. What is called chromatographic logD is lipophilicity estimated from chromatographic retention. Higher therefore signals higher lipophilicity.

Consider twelve compounds from patent US20240116985A1, “STAPLED PEPTIDES AND METHODS THEREOF” (priority 2020, published 2024).

Read-outs that look alike come from different tables or passages of the source.

Data set [1] in a line: CHI Log D procedure. The class given is physicochemical. Particulars: for CHI Log D: pH 7.4; for chromatographic logD: pH 7.4, CHI Log D.
Data set [2] has as its target T1, full-length B-Catenin (Uniprot ID P35222) (Homo sapiens, UniProt P35222).
T1 construct: 65 nM full-length B-Catenin (Uniprot ID P35222)
T1 sequence (P35222 1-781): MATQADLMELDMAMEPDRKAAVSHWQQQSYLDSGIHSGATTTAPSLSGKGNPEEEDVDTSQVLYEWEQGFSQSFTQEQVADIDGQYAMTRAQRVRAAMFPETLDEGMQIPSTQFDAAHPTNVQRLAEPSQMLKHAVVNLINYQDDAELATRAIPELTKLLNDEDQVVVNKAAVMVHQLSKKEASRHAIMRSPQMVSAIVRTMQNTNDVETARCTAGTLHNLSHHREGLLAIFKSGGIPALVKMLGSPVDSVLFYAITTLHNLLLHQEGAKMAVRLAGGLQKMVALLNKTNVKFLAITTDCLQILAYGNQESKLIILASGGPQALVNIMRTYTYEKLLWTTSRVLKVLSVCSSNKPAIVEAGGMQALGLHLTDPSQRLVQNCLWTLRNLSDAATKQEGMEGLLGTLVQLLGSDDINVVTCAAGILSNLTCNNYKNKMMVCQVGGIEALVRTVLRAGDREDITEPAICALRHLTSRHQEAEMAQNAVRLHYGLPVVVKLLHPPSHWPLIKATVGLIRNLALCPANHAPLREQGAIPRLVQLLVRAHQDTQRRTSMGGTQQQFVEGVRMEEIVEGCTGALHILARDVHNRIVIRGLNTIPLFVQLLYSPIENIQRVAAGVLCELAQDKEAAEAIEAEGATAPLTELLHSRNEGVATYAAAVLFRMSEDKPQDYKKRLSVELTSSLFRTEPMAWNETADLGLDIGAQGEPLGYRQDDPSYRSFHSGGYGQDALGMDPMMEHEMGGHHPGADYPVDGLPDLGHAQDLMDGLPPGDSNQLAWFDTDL
Briefly: Alphascreen binding assay (beta-catenin / biotin-TCF4 10-53). The method in brief:
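Final concentrations: 65 nM full-length human β-catenin plus 10 nM biotin-TCF4(10-53) peptide, test peptide 3-fold from 10 uM to 5 nM, preincubated 15 min at 20 °C in Tris pH 8.0/250 mM NaCl buffer. Nickel-chelate AlphaScreen donor/acceptor beads then added for 60 min in the dark; duplicate reads fitted to 1:1 binding model with Hill slope.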

Data set [3] addresses T2, full-length beta-Catenin (Uniprot ID P35222) (Homo sapiens, UniProt P35222).
T2 construct: 10 nM full-length beta-Catenin (Uniprot ID P35222)
T2 sequence (P35222 1-781): T1 sequence (P35222 1-781)
Briefly: Fluorescence polarization IC50 (beta-catenin / 5FAM-TCF4 10-53 competition). The class given is binding. In general terms: Fluorescence polarisation rises when a labelled molecule tumbles more slowly, as on binding a larger partner.

[4] abbreviates: Table E2-1, read-out: beta-Catenin FP IC50.
Where [5] appears, read: fluorescence polarization, beta-catenin, read-out: FP EC50.

As for `CC(=O)N1CCC[C@]12CC=CCCCC1(CCCC=CCCCCCC[C@@](C)(C(=O)N[C@@H](Cc3ccccc3)C(=O)N[C@@H](Cc3c[nH]c4ccccc34)C(=O)N[C@@H](CCC(N)=O)C(N)=O)NC(=O)[C@H](C(C)C)NC(=O)[C@H](Cc3ccccc3)NC(=O)[C@H](C)NC(=O)[C@H](C)NC(=O)[C@H](CCC(N)=O)NC(=O)[C@H](CC(=O)O)NC1=O)NC(=O)[C@H](C)NC(=O)[C@H](CC(=O)O)NC2=O` (stereo partly drawn) [I-127, Ac-PL3-Asp-Ala-B5-Asp-Gln-Ala-Ala-Phe-Val-S8-Phe-Trp-Gln-NH2], in data set [1], the “CHI Log D” value is on record as 2.245. The same compound registered a concentration for a half-maximal effect (EC50) in data set [2] of 552 nM. Moreover, the IC50 in data set [3] (setting [4]) and in data set [3] (setting [5]) was 4840 nM each time.
As to `CC(=O)N1CCC[C@]12CC=CCCCC1(CCCC=CCCCCCC[C@@](C)(C(=O)N[C@@H](Cc3ccccc3)C(=O)N[C@@H](Cc3c[nH]c4ccccc34)C(=O)N[C@@H](CCC(N)=O)C(N)=O)NC(=O)[C@H](C(C)C)NC(=O)[C@H](Cc3ccccc3)NC(=O)[C@H](C)NC(=O)[C@H](C)NC(=O)[C@H](CCCC(=O)O)NC(=O)[C@H](CC(=O)O)NC1=O)NC(=O)[C@H](C)NC(=O)[C@H](CC(=O)O)NC2=O` (stereo partly drawn) [I-129, Ac-PL3-Asp-Ala-B5-Asp-Aad-Ala-Ala-Phe-Val-S8-Phe-Trp-Gln-NH2], in data set [1], the chromatographic logD worked out at 2.11. The compound also yielded an EC50 in data set [2] of 83 nM. Further, the IC50 in data set [3] (setting [4]) was determined as 1980 nM.
As to `CC(=O)N1CCC[C@]12CC=CCCCC1(CCCC=CCCCCCC[C@@](C)(C(=O)N[C@@H](Cc3ccccc3)C(=O)N[C@@H](Cc3c[nH]c4ccccc34)C(=O)NC(C)(C)C(N)=O)NC(=O)[C@H](C(C)C)NC(=O)[C@H](Cc3ccccc3)NC(=O)[C@H](C)NC(=O)[C@H](C)NC(=O)[C@H](CCC(=O)O)NC(=O)[C@H](CC(=O)O)NC1=O)NC(=O)[C@H](C)NC(=O)[C@H](CC(=O)O)NC2=O` (stereo partly drawn) [I-134, Ac-PL3-Asp-Ala-B5-Asp-Glu-Ala-Ala-Phe-Val-S8-Phe-Trp-Aib-NH2], the “CHI Log D” value in data set [1] came to 2.426. The compound further came in with an EC50 in data set [2] of 99 nM. The IC50 in data set [3] (setting [4]) and in data set [3] (setting [5]) was 2700 nM each time.
`CC(=O)N1CCC[C@]12CC=CCCCC1(CCCC=CCCCCCC[C@@](C)(C(=O)N[C@@H](Cc3ccccc3)C(=O)N[C@@H](Cc3csc4ccccc34)C(=O)N[C@@H](CCC(N)=O)C(N)=O)NC(=O)[C@H](C(C)C)NC(=O)[C@H](Cc3ccccc3)NC(=O)[C@H](C)NC(=O)[C@H](C)NC(=O)[C@H](CCC(=O)O)NC(=O)[C@H](CC(=O)O)NC1=O)NC(=O)[C@H](C)NC(=O)[C@H](CC(=O)O)NC2=O` (stereo partly drawn) [I-144, Ac-PL3-Asp-Ala-B5-Asp-Glu-Ala-Ala-Phe-Val-S8-Phe-BztA-Gln-NH2] registered a chromatographic logD in data set [1] of 2.12. For the same compound, a half-maximal response in data set [2] (EC50) required 66 nM. For the same compound, the IC50 in data set [3] (setting [4]) came out at 147 nM.
Taken in the same sequence, the figures for `CC[C@H](C)[C@H](NC(=O)[C@H](CC(=O)O)NC(=O)[C@H](C)NC(C)=O)C(=O)N[C@]1(C)CCN(C)C(=O)OCC=CCCCCC[C@@](C)(C(=O)N[C@@H](Cc2ccccc2)C(=O)N[C@@H](Cc2c[nH]c3ccccc23)C(N)=O)NC(=O)[C@H](CCC(N)=O)NC(=O)[C@H](Cc2ccccc2)NC(=O)[C@H](C)NC(=O)[C@H](C)NC(=O)[C@H](CCC(=O)O)NC(=O)[C@H](CC(=O)O)NC1=O` [I-148, Ac-Ala-Asp-Ile-RdN-Asp-Glu-Ala-Ala-Phe-Gln-S7-Phe-Trp-NH2] were 1.36, 398 nM and 2770 nM.
Taken in the same sequence, the figures for `CC[C@H](C)[C@H](NC(=O)[C@H](CC(=O)O)NC(=O)[C@H](C)NC(C)=O)C(=O)N[C@]1(C)CCN(C)C(=O)OCC=CCCCCC[C@@](C)(C(=O)N[C@@H](Cc2ccccc2)C(=O)N[C@@H](Cc2c[nH]c3ccccc23)C(=O)N[C@@H](C)C(N)=O)NC(=O)[C@H](CCC(N)=O)NC(=O)[C@H](Cc2ccccc2)NC(=O)[C@H](C)NC(=O)[C@H](C)NC(=O)[C@H](CCC(=O)O)NC(=O)[C@H](CC(=O)O)NC1=O` [I-153, Ac-Ala-Asp-Ile-RdN-Asp-Glu-Ala-Ala-Phe-Gln-S7-Phe-Trp-Ala-NH2] were 1.32, 153 nM and 2140 nM.
As to `CC[C@H](C)[C@@H]1NC(=O)[C@H](CC(=O)O)NC(=O)[C@]2(CC=CCCCC3(CCCC=CCCCCCC[C@@](C)(C(=O)N[C@@H](Cc4ccccc4)C(=O)N[C@@H](Cc4c[nH]c5ccccc45)C(=O)N[C@@H](Cc4c[nH]cn4)C(N)=O)NC(=O)[C@H](CCC(N)=O)NC(=O)[C@H](Cc4ccccc4)NC(=O)[C@H](C)NC(=O)[C@H](C)NC(=O)[C@H](CC(=O)O)NC(=O)[C@H](CC(=O)O)NC3=O)NC1=O)CCCN2C(C)=O` (stereo partly drawn) [I-174, Ac-PL3-Asp-Ile-B5-Asp-Asp-Ala-Ala-Phe-Gln-S8-Phe-Trp-His-NH2], the “CHI Log D” value in data set [1] came out at 2.242. In data set [2], this compound registered an EC50 of 116 nM. For the same compound, the IC50 in data set [3] (setting [4]) and in data set [3] (setting [5]) was 1760 nM throughout.
For the compound `CC[C@H](C)[C@@H]1NC(=O)[C@H](CC(=O)O)NC(=O)[C@]2(CC=CCCCC3(CCCC=CCCCCCC[C@@](C)(C(=O)N[C@@H](Cc4ccccc4)C(=O)N[C@@H](Cc4c[nH]c5ccccc45)C(=O)N[C@@H](Cc4c[nH]cn4)C(N)=O)NC(=O)[C@H](C(C)C)NC(=O)[C@H](Cc4ccccc4)NC(=O)[C@H](C)NC(=O)[C@H](C)NC(=O)[C@H](CCC(=O)O)NC(=O)[C@H](CC(=O)O)NC3=O)NC1=O)CCCN2C(C)=O` (stereo partly drawn) [I-176, Ac-PL3-Asp-Ile-B5-Asp-Glu-Ala-Ala-Phe-Val-S8-Phe-Trp-His-NH2], the “CHI Log D” value in data set [1] worked out at 2.58. The compound further came in with an EC50 in data set [2] of 549 nM. Besides, the IC50 in data set [3] (setting [4]) and in data set [3] (setting [5]) was 1990 nM in each case.
Consider `CC(=O)N1CCC[C@]12CC=CCCCC1(CCCC=CCCCCCC[C@@](C)(C(=O)N[C@@H](Cc3ccccc3)C(=O)N[C@@H](Cc3c[nH]c4ccccc34)C(=O)N[C@@H](Cc3c[nH]cn3)C(N)=O)NC(=O)[C@H](CCC(N)=O)NC(=O)[C@H](Cc3ccccc3)NC(=O)[C@H](C)NC(=O)[C@H](C)NC(=O)[C@H](CCC(=O)O)NC(=O)[C@H](CC(=O)O)NC1=O)NC(=O)[C@H](C)NC(=O)[C@H](CC(=O)O)NC2=O` (stereo partly drawn) [I-178, Ac-PL3-Asp-Ala-B5-Asp-Glu-Ala-Ala-Phe-Gln-S8-Phe-Trp-His-NH2], for which the “CHI Log D” value in data set [1] is reported as 1.913. In data set [2], this compound returned an EC50 of 152 nM. The IC50 in data set [3] (setting [4]) and in data set [3] (setting [5]) was 1630 nM in each case.
For the compound `CC[C@H](C)[C@@H]1NC(=O)[C@H](CC(=O)O)NC(=O)[C@]2(CC=CCCCC3(CCCC=CCCCCCC[C@@](C)(C(=O)N[C@@H](Cc4ccccc4)C(=O)N[C@@H](Cc4c[nH]c5ccccc45)C(=O)N[C@@H](CCC(N)=O)C(N)=O)NC(=O)[C@H](CCC(N)=O)NC(=O)[C@H](Cc4ccccc4)NC(=O)[C@H](C)NC(=O)[C@H](C)NC(=O)[C@H](CCC(=O)O)NC(=O)[C@H](CC(=O)O)NC3=O)NC1=O)CCCN2C(C)=O` (stereo partly drawn) [I-180, Ac-PL3-Asp-Ile-B5-Asp-Glu-Ala-Ala-Phe-Gln-S8-Phe-Trp-Gln-NH2], the “CHI Log D” value in data set [1] came out at 2.193. In data set [2], it took 88 nM to reach a half-maximal effect (EC50). In addition, in data set [3] (setting [4]), the IC50 was 56 nM.
On to `CC[C@H](C)[C@@H]1NC(=O)[C@H](CC(=O)O)NC(=O)[C@]2(CC=CCCCC3(CCCC=CCCCCCC[C@@](C)(C(=O)N[C@@H](Cc4ccccc4)C(=O)N[C@@H](Cc4c[nH]c5ccccc45)C(=O)N[C@@H](CCC(N)=O)C(N)=O)NC(=O)[C@H](CCC(N)=O)NC(=O)[C@H](Cc4ccccc4)NC(=O)[C@H](C)NC(=O)[C@H](C)NC(=O)[C@H](CCC(=O)O)NC(=O)[C@H](CC(=O)O)NC3=O)NC1=O)CCCN2C(C)=O` (stereo partly drawn) [I-181, Ac-PL3-Asp-Ile-B5-Asp-Glu-Ala-Ala-Phe-Gln-S8-Phe-Trp-Gln-NH2], for which the “CHI Log D” value in data set [1] came out at 2.213. In addition, the response in data set [2] was half-maximal at 51 nM (EC50). Also, the IC50 in data set [3] (setting [4]) and in data set [3] (setting [5]) was 310 nM in each case.
Regarding `CC[C@H](C)[C@@H]1NC(=O)[C@H](CC(=O)O)NC(=O)[C@]2(CC=CCCCC3(CCCC=CCOC(=O)N(C)CCC[C@@](C)(C(=O)N[C@@H](Cc4ccccc4)C(=O)N[C@@H](Cc4c[nH]c5ccccc45)C(=O)N[C@@H](Cc4c[nH]cn4)C(N)=O)NC(=O)[C@H](CCC(N)=O)NC(=O)[C@H](Cc4ccccc4)NC(=O)[C@H](C)NC(=O)[C@H](C)NC(=O)[C@H](CC(=O)O)NC(=O)[C@H](CC(=O)O)NC3=O)NC1=O)CCCN2C(C)=O` (stereo partly drawn) [I-188, Ac-PL3-Asp-Ile-B5-Asp-Asp-Ala-Ala-Phe-Gln-SeN-Phe-Trp-His-NH2], in data set [1], the “CHI Log D” value is 1.611. A half-maximal response in data set [2] (EC50) required 156 nM. The IC50 in data set [3] (setting [4]) and in data set [3] (setting [5]) was 1600 nM in each case.
